64 compounds from ChEMBL document CHEMBL3639003, “Heteroaryloxycarbocyclyl compounds as PDE10 inhibitors” (2015) can be followed below.

For this assay, the target named is cAMP and cAMP-inhibited cGMP 3',5'-cyclic phosphodiesterase 10A (Homo sapiens, UniProt Q9Y233). As to the kind of experiment: IMAP TR-FRET Assay: Enzyme Activity. An IMAP TR-FRET assay was used to analyze the enzyme activity (Molecular Devices Corp., Sunnyvale Calif.). 5 uL, of serial diluted PDE10A (BPS Bioscience, San Diego, Calif.) or tissue homogenate was incubated with equal volumes of diluted fluorescein labeled cAMP or cGMP for 60 min in 384-well polystyrene assay plates (Corning, Corning, N.Y.) at room temperature. After incubation, the reaction was stopped by adding 60 uL, of diluted binding reagents and was incubated for 3 hours to overnight at room temperature. The plates were read on an Envision (Perkin Elmer, Waltham, Mass.) for time resolved fluorescence resonance energy transfer. The data were analyzed with GraphPad Prism (La Jolla, Calif.).Enzyme Inhibition. To check the inhibition profile, 5 uL, of serial diluted compounds were incubated with 5 uL, of diluted PDE10 enzyme (BPS Bioscience, San Diego, Calif.) or tissue homogenate in a 384-well polystyrene assay plate (Corning, Corning, N.Y.).
Sequence of cAMP and cAMP-inhibited cGMP 3',5'-cyclic phosphodiesterase 10A (Q9Y233 whole entry): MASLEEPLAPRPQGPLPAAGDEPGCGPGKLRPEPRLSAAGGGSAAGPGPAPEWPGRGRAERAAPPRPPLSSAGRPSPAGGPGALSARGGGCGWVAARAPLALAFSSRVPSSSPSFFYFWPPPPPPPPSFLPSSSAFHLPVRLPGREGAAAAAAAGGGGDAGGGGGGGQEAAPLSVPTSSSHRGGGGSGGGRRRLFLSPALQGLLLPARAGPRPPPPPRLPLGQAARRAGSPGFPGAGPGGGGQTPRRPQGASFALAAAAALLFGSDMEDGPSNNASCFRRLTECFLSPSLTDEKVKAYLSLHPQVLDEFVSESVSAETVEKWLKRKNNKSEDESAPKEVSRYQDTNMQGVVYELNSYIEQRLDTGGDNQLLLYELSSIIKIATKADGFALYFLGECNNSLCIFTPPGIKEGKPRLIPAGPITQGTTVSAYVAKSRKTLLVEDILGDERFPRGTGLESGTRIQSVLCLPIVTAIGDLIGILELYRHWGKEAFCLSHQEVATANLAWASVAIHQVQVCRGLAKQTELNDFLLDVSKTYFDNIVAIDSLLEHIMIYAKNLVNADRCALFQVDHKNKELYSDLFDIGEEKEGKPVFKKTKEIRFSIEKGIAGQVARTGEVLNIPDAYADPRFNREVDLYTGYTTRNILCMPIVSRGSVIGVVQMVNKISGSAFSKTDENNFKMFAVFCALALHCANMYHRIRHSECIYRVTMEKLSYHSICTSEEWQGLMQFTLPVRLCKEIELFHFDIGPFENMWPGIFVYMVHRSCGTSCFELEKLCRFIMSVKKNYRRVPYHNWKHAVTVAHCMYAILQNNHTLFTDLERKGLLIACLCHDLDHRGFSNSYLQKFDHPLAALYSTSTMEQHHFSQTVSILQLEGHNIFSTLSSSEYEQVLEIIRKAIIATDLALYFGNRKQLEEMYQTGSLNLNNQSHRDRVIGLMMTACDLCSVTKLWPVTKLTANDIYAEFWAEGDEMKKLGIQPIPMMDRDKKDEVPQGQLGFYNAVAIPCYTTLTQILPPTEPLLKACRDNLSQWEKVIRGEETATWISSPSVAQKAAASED

Molecules are shown by their SMILES.

Usually IC50 stands for the concentration needed to halve the response being measured. Low readings indicate inhibition by little substance, high ones a need for much substance. As to `CC1CCN(c2nccnc2O[C@H]2C[C@@H](Nc3nc4ccccc4s3)C2)C1` (some centres undefined), the half-inhibitory concentration (IC50) was determined as 6.92 nM. In the case of `O=C(c1ccccn1)C1CC(Oc2ncccc2C2CCOCC2)C1` (centres undefined) it was 250 nM. In the case of `Cc1cc(-c2nccnc2O[C@H]2C[C@@H](Nc3nc4ccccc4s3)C2)ccn1` it was 20.5 nM; in that of `OCC1CCCN(c2nccnc2O[C@H]2C[C@@H](Nc3nc4ccccc4s3)C2)C1` (some centres undefined), 3.62 nM; in that of `COCC(=O)N1CCC(c2nccnc2O[C@H]2C[C@@H](Nc3nc4ccccc4s3)C2)CC1`, 6.57 nM. Under `COc1ncccc1-c1nccnc1O[C@H]1C[C@@H](Nc2nc3ccccc3s2)C1` stands 4.11 nM.

Regarding `OCC1CCN(c2nccnc2O[C@H]2C[C@@H](Nc3nc4ccccc4s3)C2)CC1`, the IC50 is 3.16 nM.

Turning to `c1cnc(O[C@H]2C[C@@H](Nc3nc4ccccc4s3)C2)c(C2CCOCC2)c1`, the IC50 stood at 0.751 nM.

`Fc1cnc(O[C@H]2C[C@@H](Nc3nc4c(F)cccc4s3)C2)c(C2CCOCC2)c1` registered an IC50 of 5.43 nM. In the case of `COCC(=O)N1CCC(c2nccnc2O[C@H]2C[C@@H](Nc3ccc4ccccc4n3)C2)CC1` it was 5.06 nM; in that of `NC(=O)c1ccc(-c2nccnc2O[C@H]2C[C@@H](Nc3nc4ccccc4s3)C2)cn1`, 2.96 nM; in that of `O[C@H]1CCN(c2nccnc2O[C@H]2C[C@@H](Nc3nc4ccccc4s3)C2)C1`, 17.5 nM. `c1cnc(O[C@H]2C[C@H](Nc3nc4ccccc4[nH]3)C2)c(C2CCOCC2)c1` showed a half-inhibitory concentration (IC50) of 2.63 nM. In the case of `CN1CCN(c2nccnc2O[C@H]2C[C@@H](Nc3ncc4ccccc4n3)C2)CC1` it was 316 nM; in that of `c1ccc2sc(N[C@H]3C[C@@H](Oc4nccnc4N4CCOCC4)C3)nc2c1`, 22.4 nM. As to `Fc1cnc(O[C@H]2C[C@@H](Nc3nc4cc(F)ccc4s3)C2)c(C2CCOCC2)c1`, the IC50 amounted to 3.49 nM. In turn, `N#Cc1ccc(-c2cccnc2O[C@H]2C[C@H](Nc3nc4ccccc4s3)C2)cn1` returned a half-maximal inhibitory concentration (IC50) of 2.97 nM. In the case of `CC(=O)N1CCC(c2nccnc2O[C@H]2C[C@@H](Nc3nc4ccccc4s3)C2)CC1` it was 2.77 nM. In the case of `O=C(c1nc2ccccc2[nH]1)[C@H]1C[C@H](Oc2ncccc2C2CCOCC2)C1` it was 7.15 nM; in that of `O[C@@H]1CCN(c2nccnc2O[C@H]2C[C@@H](Nc3nc4ccccc4s3)C2)C1`, 14.2 nM; in that of `c1cnc(O[C@H]2C[C@H](Nc3nc4ccccc4s3)C2)c(C2CCOCC2)c1`, 3.19 nM. Under `Cc1cccc(N[C@H]2CC[C@H](Oc3ncccc3C3CCOCC3)CC2)n1` stands 1750 nM; under `Cc1cc(-c2cccnc2O[C@H]2CC[C@H](Nc3nc4ccccc4s3)CC2)ccn1`, 19.6 nM. Compound `CC(=O)N1CCN(c2nccnc2O[C@H]2C[C@@H](Nc3ccc4ccccc4n3)C2)CC1` yielded an IC50 of 23.7 nM. Under `c1cnc(O[C@H]2CC[C@H](Nc3nc4ccccc4o3)CC2)c(C2CCOCC2)c1` stands 12 nM.

In the case of `CC(=O)N1CCC(c2nccnc2O[C@H]2C[C@@H](Nc3ccc(C)cn3)C2)CC1`, the IC50 was 66.1 nM. Under `CN1CCN(c2nccnc2O[C@H]2C[C@@H](Nc3nc4ccccc4s3)C2)CC1` stands 122 nM; under `N#Cc1ccc(-c2nccnc2O[C@H]2C[C@@H](Nc3ncc4ccccc4n3)C2)cn1`, 7.71 nM; under `COC(=O)N1CC(c2nccnc2O[C@H]2C[C@@H](Nc3nc4ccccc4s3)C2)C1`, 17.5 nM.

Take `Clc1ccc(C2=CCOCC2)c(O[C@H]2C[C@@H](Nc3nc4ccccc4s3)C2)n1`: the IC50 amounted to 3.55 nM. In the case of `COC(=O)N1CCC(c2cccnc2O[C@H]2C[C@@H](Nc3nc4ccccc4s3)C2)CC1` it was 3.18 nM.

In turn, `N#CC1CCN(c2cccnc2O[C@H]2C[C@@H](Nc3nc4ccccc4s3)C2)CC1` displayed an IC50 of 1.25 nM. Under `Fc1cccc2sc(N[C@H]3C[C@@H](Oc4nccnc4C4CCOCC4)C3)nc12` stands 13 nM; under `FC1(F)CCN(c2nccnc2O[C@H]2C[C@@H](Nc3nc4ccccc4s3)C2)C1`, 11.1 nM. Under `OCC1CCN(c2nccnc2O[C@H]2C[C@@H](Nc3ncc4ccccc4n3)C2)CC1` stands 10.9 nM; under `O=S1(=O)CCN(c2nccnc2O[C@H]2C[C@@H](Nc3nc4ccccc4s3)C2)CC1`, 18.5 nM; under `c1ccc2nc(N[C@H]3C[C@@H](Oc4nccnc4C4CCOCC4)C3)ccc2c1`, 7.5 nM.

Regarding `CC1CCCN(c2nccnc2O[C@H]2C[C@@H](Nc3nc4ccccc4s3)C2)C1` (some centres undefined), the IC50 came out at 29.4 nM. Compound `c1cnc(O[C@H]2C[C@@H](Nc3ccc4ccccc4n3)C2)c(C2CCOCC2)c1` yielded an IC50 of 1.5 nM. `c1cnc(O[C@H]2CC[C@H](Nc3nc4ccccc4s3)CC2)c(C2CCOCC2)c1`: the IC50 is 32.5 nM. Under `CC(=O)N1CCC(c2nccnc2O[C@H]2C[C@H](Nc3ccc(C)cn3)C2)CC1` stands 84.6 nM; under `Clc1ccc(-c2nccnc2O[C@H]2C[C@@H](Nc3nc4ccccc4s3)C2)cn1`, 7.66 nM. Compound `Fc1ccc2sc(N[C@H]3C[C@@H](Oc4nccnc4C4CCOCC4)C3)nc2c1` came in with an IC50 of 18.3 nM. Under `CC(=O)N1CCC(c2nccnc2O[C@H]2C[C@H](Nc3ccc4ccccc4n3)C2)CC1` stands 15.8 nM. In the case of `COCC(=O)N1CCC(c2cccnc2O[C@H]2C[C@@H](Nc3ccc4ccccc4n3)C2)CC1` it was 0.948 nM. In the case of `NC(=O)c1ccc(-c2nccnc2O[C@H]2C[C@@H](Nc3ccc4ccccc4n3)C2)cn1`, the IC50 is 3.8 nM. Under `CC(=O)N1CCN(c2nccnc2O[C@H]2C[C@@H](Nc3nc4ccccc4s3)C2)CC1` stands 9.26 nM; under `Cc1cnccc1-c1nccnc1O[C@H]1C[C@@H](Nc2nc3ccccc3s2)C1`, 4.23 nM; under `Cc1cccnc1N[C@H]1CC[C@H](Oc2ncccc2C2CCOCC2)CC1`, 46 nM.

`N#CC1CCN(c2nccnc2O[C@H]2C[C@@H](Nc3ccc4ccccc4n3)C2)CC1` showed an IC50 of 2.26 nM.

Consider `N#Cc1ccc(-c2nccnc2O[C@H]2C[C@@H](Nc3ccc4ccccc4n3)C2)cn1`, for which the IC50 came to 8.35 nM. The compound `c1cnc(O[C@H]2CC[C@H](Nc3ccc4ccccc4n3)CC2)c(C2CCOCC2)c1` came in with an IC50 of 91 nM. In the case of `Cc1ccnc(N[C@H]2CC[C@H](Oc3ncccc3C3CCOCC3)CC2)c1` it was 150 nM; in that of `N#CC1CCN(c2nccnc2O[C@H]2C[C@@H](Nc3nc4ccccc4s3)C2)C1` (some centres undefined), 1.07 nM. Under `Cc1ncc(-c2nccnc2O[C@H]2C[C@@H](Nc3nc4ccccc4s3)C2)cn1` stands 3.25 nM. In the case of `c1cnc(O[C@H]2C[C@@H](Nc3nc4ccccc4[nH]3)C2)c(C2CCOCC2)c1` it was 1.53 nM. The compound `Cc1ccc(N[C@H]2C[C@H](Oc3ncccc3C3CCOCC3)C2)nc1` showed a half-inhibitory concentration (IC50) of 17.6 nM. The compound `Cc1ccc(-c2nccnc2O[C@H]2C[C@@H](Nc3nc4cc(F)ccc4s3)C2)cn1` displayed a 50% inhibitory concentration (IC50) of 19.7 nM.

With `N#CC1CCN(c2nccnc2O[C@H]2C[C@@H](Nc3nc4ccccc4s3)C2)CC1`, the IC50 is 2.31 nM. In the case of `Fc1ccc2nc(N[C@H]3C[C@@H](Oc4nccnc4C4CCOCC4)C3)sc2c1` it was 15.1 nM; in that of `CC(=O)N1CCC(c2cccnc2O[C@H]2C[C@@H](Nc3ccc4ccccc4n3)C2)CC1`, 1.32 nM; in that of `N#Cc1ccc(-c2nccnc2O[C@H]2C[C@@H](Nc3nc4ccccc4s3)C2)cn1`, 7.4 nM.

In turn, `COC(=O)N1CCC(c2nccnc2O[C@H]2C[C@@H](Nc3nc4ccccc4s3)C2)CC1` came in with a concentration for half-maximal inhibition (IC50) of 4.24 nM.

`NC(=O)c1ccc(-c2cccnc2O[C@H]2C[C@@H](Nc3nc4ccccc4s3)C2)cn1` displayed an IC50 of 0.129 nM.
